The source of these data is paper PMC8987157, “Regioselective One-Pot Synthesis of Hydroxy-(S)-Equols Using Isoflavonoid Reductases and Monooxygenases and Evaluation of the Hydroxyequol Derivatives as Selective Estrogen Receptor Modulators and Antioxidants” (Frontiers in Bioengineering and Biotechnology, 2022).

Assay [1] in a line: DPPH radical scavenging assay. The procedure: DPPH radical scavenging assay. In each well of polystyrene flat-bottom 96-well plates, 200 μL of solution containing 0.1 mM 2,2-diphenyl-1-(2,4,6-trinitrophenyl)hydrazin-1-yl (DPPH) radical, 50% (v/v) MeOH, 10% (v/v) DMSO, specific amount of compounds, and 1x concentration of phosphate buffered saline (PBS) was made. The PBS was prepared with 4x concentration of its original recipe with pH 7.4 and diluted by adding 50 μL in the solution mixture. The plates were incubated at 37°C for 30 min. The OD520 and OD495 of incubated plates were measured. The radical scavenging activity was defined as (OD520/OD495)DMSO- OD520/OD495. (OD520/OD495)DMSO is the OD520/OD495 of the DMSO control without antioxidative compounds. The radical scavenging activity values were normalized with the value of the positive control (1 mM of L-ascorbic acid). The data were triplicated, and the average values were regressed using the following formula.
where E/E 0 is the normalized radical scavenging activity, [L] is the concentration of compounds, and n is the Hill’s coefficient, and EC50 is the value of effective concentration at E/E 0 = 0.5.
Background: Loss of DPPH colour is used to gauge radical scavenging.

Another assay concerns the target T1, ERα LBD (Homo sapiens, UniProt P03372).
T1 construct: expressed in transfected cells; host or cells: Saccharomyces cerevisiae L40
T1 sequence (P03372 312-595): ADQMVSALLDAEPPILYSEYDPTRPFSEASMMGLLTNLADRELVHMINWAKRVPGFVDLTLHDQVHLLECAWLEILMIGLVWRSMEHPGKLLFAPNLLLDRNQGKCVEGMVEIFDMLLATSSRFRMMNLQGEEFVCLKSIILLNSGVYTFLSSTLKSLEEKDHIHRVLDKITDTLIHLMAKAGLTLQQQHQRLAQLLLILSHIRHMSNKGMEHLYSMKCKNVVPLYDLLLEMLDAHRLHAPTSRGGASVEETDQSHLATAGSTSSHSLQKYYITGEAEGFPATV
T1 sequence (Q15788 613-773 partner limits assumed): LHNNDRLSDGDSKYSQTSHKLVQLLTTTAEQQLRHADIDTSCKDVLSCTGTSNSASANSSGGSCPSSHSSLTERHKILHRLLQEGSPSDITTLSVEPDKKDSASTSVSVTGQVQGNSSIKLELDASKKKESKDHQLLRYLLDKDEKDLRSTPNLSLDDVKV
The experiment in a line: ERα-SRC1 agonistic yeast two hybrid (Y2H) assay, β-galactosidase activity. The assay is classed as cell-based. The following applies: for pEC50: Y2H ERα-SRC1, yeast L40, triplicates. The text has this:
(§1) Microbial strains. Cloning information and used primers for the construction of EcHpaBC and MaFMO encoded vectors are listed in Supplementary Table S1. […] Three EcHpaB mutants were made by site-directed mutagenesis using the listed overlapping primer-containing intended mutations. […] These sets of two vectors (pBTM116:LexA DBD-ERα LBD & pVP16:VP16 AD-(Gly4Ser)2-tSRC1 or pBTM116:LexA DBD-ERβ LBD & pVP16:VP16 AD-(Gly4Ser)2-tSRC1) were transformed in the L40 strains.
(§2) Yeast-two-hybrid assay. The transformed L40 strains were grown in synthetic leucine and tryptophan drop-out (SD L^−W^-) media. […] These plates were incubated at 30 °C with shaking of 1,000 rpm for overnight (∼20 h). After the incubation, the cultures were centrifuged, and the supernatants were discarded. In each well, 500 μL Z-buffer (60 mM Na2HPO4, 40 mM NaH2PO4, 10 mM KCl, and 1 mM MgSO4; pH 7.0) with 1 mM dithiothreitol (DTT) was filled and resuspended. 50 μL of each suspension was taken for OD600 measurement before chloroform treatment. (This value was not used for the measurement of the Miller unit.) Chloroform 50 μL was added to each 450 μL of the suspension, and the solution mixture was shaked for 1 min at 1,000 rpm to disrupt the cell membrane. The disrupted suspensions were kept still at room temperature for 2 min, and 50 μL aqueous aliquots were taken. In polystyrene flat-bottomed 96-well plate, each well was charged with 100 μL of Z-buffer with 1 mM DTT, 50 μL aqueous aliquot, and 50 μL of Z-buffer with 1 mM DTT and 0.4 mg/ml ortho-nitrophenyl-β-galactoside (ONPG). Initially, OD600 of all the wells was measured, and subsequently, OD420 of the same wells was measured for 30 min with a minute interval. […] E/E0=ε/1+10^n(log(EC50)−log([L])),
(§3) where E/E 0 is the normalized Miller unit and ε is the maximum response relative to E2 (ε(E2) = 1). [L] is the concentration of ligands and n is the Hill’s coefficient.

The target of the next assay is T2, ERβ LBD (Homo sapiens, UniProt Q92731).
T2 construct: LexA DBD-ERβ LBD (264–510); expressed in transfected cells; host or cells: Saccharomyces cerevisiae L40
Put plainly: ERβ-SRC1 agonistic yeast two hybrid (Y2H) assay, β-galactosidase activity. The assay is classed as cell-based. Particulars: for β/α ratio of EC50^-1: ERβ over ERα, Y2H; for pEC50: Y2H ERβ-SRC1, yeast L40, triplicates.
Source text: as §1, §2, §3

A further assay relates to ERα. The arrangement: method as in Lee et al., 2017. Particulars: ref Lee et al., 2017; cited from earlier work.

pEC50: −log10 of the molar value. Several values for one entry are separate records, joined by “and”; a condition that tells them apart may be missing. Equal entries are not always repeated.

T2 sequence (Q92731 264-510, one chain of several): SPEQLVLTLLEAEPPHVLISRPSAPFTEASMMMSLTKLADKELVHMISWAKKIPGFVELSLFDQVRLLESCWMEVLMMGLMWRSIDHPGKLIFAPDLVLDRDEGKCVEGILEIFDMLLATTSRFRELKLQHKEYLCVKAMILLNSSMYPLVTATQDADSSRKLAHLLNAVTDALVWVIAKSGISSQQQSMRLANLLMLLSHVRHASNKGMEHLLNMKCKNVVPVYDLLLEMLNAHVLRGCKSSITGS

Usually pEC50 stands for the negative decadic logarithm of the EC50, by convention in mol/L. A low value points to a high EC50. For `Oc1ccc2c(c1)OC[C@H](c1ccc(O)c(O)c1)C2` [3'-hydroxy-(S)-equol, 3′-hydroxy-(S)-equol], the “antioxidative activity higher than 3′HD” value in assay [1] is reported as “more than 40%”. Besides, the “fold higher EC50 than (S)-equol” value at ERα LBD (ERα) and at ERβ LBD (ERβ) was 30∼200 fold each time. Besides, the pEC50 on ERα LBD was 4.00 to 5.00 and 4.69; on ERβ LBD, 4.00 to 5.00 and 4.75. At ERβ LBD, the “β/α ratio of EC50^-1” value turned out to be 1.15.

Consider `Oc1ccc([C@H]2COc3cc(O)cc(O)c3C2)cc1` [5-hydroxy-(S)-equol], for which, in the assay with ERα, the “binding affinity ERα versus ERβ” value is given as “higher binding affinity to ERα than ERβ”. Besides, the “response in Y2H agonist assay” value on ERα LBD (ERα, concentrations in the range of 10^–8∼10^–3 M) was “did not show any response”; on ERβ LBD (ERβ, concentrations in the range of 10^–8∼10^–3 M), “did not show any response”.

For `Oc1ccc([C@H]2COc3cc(O)c(O)cc3C2)cc1` [6-hydroxy-(S)-equol], the “fold higher EC50 than (S)-equol” value on ERα LBD (ERα) and at ERβ LBD (ERβ) was 30∼200 fold in each case. The pEC50 at ERα LBD is 4.00 to 5.00 and 3.99; at ERβ LBD, 4.00 to 5.00 and 3.99. In addition, on ERβ LBD, the “lower β/α ratio response than that of 17β-estradiol” value is reported as 10%. Besides, on ERβ LBD, the “β/α ratio of EC50^-1” value was found to be 1.00.

`Oc1ccc([C@H]2COc3cc(O)ccc3C2)cc1` [(S)-equol]: the “weaker estrogenic activity than E2” value at ERα LBD (ERα) and at ERβ LBD (ERβ) was “about 3 orders of magnitude” throughout. The pEC50 was 6.18 at ERα LBD and 6.30 at ERβ LBD. Besides, the “β/α ratio of EC50^-1” value at ERβ LBD was 1.31.
